Measured values published in patent US9241923B2, “Methods for promoting neuronal development and/or health” (Mead Johnson Nutrition Company, priority 2013, dated 2016).

System: human adipose derived stem cells (hADSCs)
Experiment: neurogenesis / neuronal differentiation of hADSCs judged by neuronal morphology under phase contrast microscopy
Assay type: cell-based
Experimental: hADSCs were purchased from Invitrogen, also known as Life Technologies, of Carlsbad, Calif., U.S.A., and were cultured as near confluent monolayers in 100 mm culture plates within a maintenance media consisting of Complete MesenPro RS medium with growth supplement and L-glutamine obtained from Invitrogen®. The process of culturing, passage, and seeding the hADSCs is described below.
The subculture of hADSCs was performed when cell culture reached confluence. To passage hADSCs, the following procedure is used: i) aspirate the Complete MesenPRO RS medium from the cells; ii) rinse the surface area of the cell layer with Dulbecco's phosphate buffered saline (DBPS) buffer by adding the DPBS to the side of the vessel opposite the attached cell layer and rocking the vessel back and forth several times; iii) remove the DPBS by aspiration and discard; iv) detach the cells by adding a sufficient volume of pre-warmed trypsin-EDTA solution without phenol red to cover the cell layer; v) incubate at 37° C. for approximately 7 minutes; vi) observe the cells under a microscope to determine if additional incubation is needed; vii) add 3 mL of the maintenance media to the plate, mix the cell suspension, add the suspension to a 15 mL centrifuge tube and centrifuge at 210 g for 5 minutes; viii) determine the total number of cells and percent viability using a hemacytometer; ix) add Complete MesenPRO RS medium to each vessel so that the final culture volume is 0.2 mL-0.5 mL per cm^2; x) seed the cells by adding the appropriate volume of cells to each vessel and incubate at 37° C., 5% CO2 and 90% humidity; and xi) three or four days after seeding, completely remove the medium and replace with an equal volume of Complete MesenPRO RS medium.
Before seeding the passaged hADSCs on fresh culture plates, the surfaces of the culture ware are washed with sterile DPBS solution three times, followed by multiple rinses with sterile water. The first layer of coating is poly-L-ornithine. The coating is prepared by adding about 15 to about 20 µg/mL of poly-L-ornithine and incubating at 37° C. for one hour. The plate is washed three times with DPBS, 15 minutes per wash. The second layer of coating is bovine plasma fibronectin. The fibronectin is diluted in DPBS from stock to 1:1000 and 500 μL is added to each well. The plate is left at room temperature for one hour. One final wash with 500 μL per well of DPBS is performed and the plate is used immediately.
The cells were then subjected to removal and reseeded at a density of 2×10^4 cells/ml (1×10^4 cells/well) onto 24-well culture plates that contained a poly-L-ornithine and bovine plasma fibronectin coating.
Three days after seeding and priming; the culture medium was changed into neuronal differentiation medium. […]

O=C(O)CCCCC1CCSS1 (stereo not drawn) [ALA, Alpha-lipoic acid]
neurite outgrowth compared with DHA (ALA 5 μg/ml vs DHA 20 μM, FIG. 2C vs FIG. 2B): robust ability to promote neurogenesis in terms of neurite outgrowth | neurogenesis (neuronal morphology displayed by the hADSCs) (ALA at 5 μg/ml, phase contrast microscopy at 3 hours and 24 hours, vs negative control (no treatment), FIG. 2C): strong effect to enhance neurogenesis | cell death (cellular toxicity) as compared to DHA (wells treated with ALA 5 μg/ml vs DHA 20 μM, hADSCs): less cell death overall

CC/C=C\C/C=C\C/C=C\C/C=C\C/C=C\C/C=C\CCC(=O)O [DHA, docosahexanoic acid, reference compound]
neuronal morphology of hADSCs (DHA at 20 μM (positive control), vs negative control, FIG. 2B): enhanced neuronal morphology of hADSCs
